{"source": "patent US5420288A", "about": "“Electroluminescent device comprising oxadiazole compounds luminescent material, oxadiazole compounds for the device, and method of producing oxadiazole compounds” (Ricoh Company, Ltd., priority 1992, dated 1995)", "origin": "cited, not measured here", "conditions": "conventional materials, background", "data": [{"smiles": "CC(C)(C)c1ccc(-c2nnc(-c3ccc(-c4ccccc4)cc3)o2)cc1", "note": "[2-(4-tert-butylphenyl)-5-(p-biphenyl)-1,3,4-oxadiazole]", "values": [{"measurement": "film-forming properties / crystallization / stability", "value": "easily crystallized and lacks in the stability"}]}]}
